According to US7998989B2, “2-Imino-1,3-thiazoline-based compounds and T-type calcium channel inhibitors containing the same” (Korea Institute of Science and Technology, priority 2007, dated 2011):
Where two headings read alike, the source gives them in different places.

Legend:
[1] = target: T1, α1G T-type calcium channel (Homo sapiens, UniProt O43497); assay: Assay for % inhibiting activity against T-type calcium channel using FDSS6000 (fluo-3 calcium imaging, KCl activation); assay type: cell-based
T1 construct: host or cells: HEK293
T1 sequence (O43497 whole entry): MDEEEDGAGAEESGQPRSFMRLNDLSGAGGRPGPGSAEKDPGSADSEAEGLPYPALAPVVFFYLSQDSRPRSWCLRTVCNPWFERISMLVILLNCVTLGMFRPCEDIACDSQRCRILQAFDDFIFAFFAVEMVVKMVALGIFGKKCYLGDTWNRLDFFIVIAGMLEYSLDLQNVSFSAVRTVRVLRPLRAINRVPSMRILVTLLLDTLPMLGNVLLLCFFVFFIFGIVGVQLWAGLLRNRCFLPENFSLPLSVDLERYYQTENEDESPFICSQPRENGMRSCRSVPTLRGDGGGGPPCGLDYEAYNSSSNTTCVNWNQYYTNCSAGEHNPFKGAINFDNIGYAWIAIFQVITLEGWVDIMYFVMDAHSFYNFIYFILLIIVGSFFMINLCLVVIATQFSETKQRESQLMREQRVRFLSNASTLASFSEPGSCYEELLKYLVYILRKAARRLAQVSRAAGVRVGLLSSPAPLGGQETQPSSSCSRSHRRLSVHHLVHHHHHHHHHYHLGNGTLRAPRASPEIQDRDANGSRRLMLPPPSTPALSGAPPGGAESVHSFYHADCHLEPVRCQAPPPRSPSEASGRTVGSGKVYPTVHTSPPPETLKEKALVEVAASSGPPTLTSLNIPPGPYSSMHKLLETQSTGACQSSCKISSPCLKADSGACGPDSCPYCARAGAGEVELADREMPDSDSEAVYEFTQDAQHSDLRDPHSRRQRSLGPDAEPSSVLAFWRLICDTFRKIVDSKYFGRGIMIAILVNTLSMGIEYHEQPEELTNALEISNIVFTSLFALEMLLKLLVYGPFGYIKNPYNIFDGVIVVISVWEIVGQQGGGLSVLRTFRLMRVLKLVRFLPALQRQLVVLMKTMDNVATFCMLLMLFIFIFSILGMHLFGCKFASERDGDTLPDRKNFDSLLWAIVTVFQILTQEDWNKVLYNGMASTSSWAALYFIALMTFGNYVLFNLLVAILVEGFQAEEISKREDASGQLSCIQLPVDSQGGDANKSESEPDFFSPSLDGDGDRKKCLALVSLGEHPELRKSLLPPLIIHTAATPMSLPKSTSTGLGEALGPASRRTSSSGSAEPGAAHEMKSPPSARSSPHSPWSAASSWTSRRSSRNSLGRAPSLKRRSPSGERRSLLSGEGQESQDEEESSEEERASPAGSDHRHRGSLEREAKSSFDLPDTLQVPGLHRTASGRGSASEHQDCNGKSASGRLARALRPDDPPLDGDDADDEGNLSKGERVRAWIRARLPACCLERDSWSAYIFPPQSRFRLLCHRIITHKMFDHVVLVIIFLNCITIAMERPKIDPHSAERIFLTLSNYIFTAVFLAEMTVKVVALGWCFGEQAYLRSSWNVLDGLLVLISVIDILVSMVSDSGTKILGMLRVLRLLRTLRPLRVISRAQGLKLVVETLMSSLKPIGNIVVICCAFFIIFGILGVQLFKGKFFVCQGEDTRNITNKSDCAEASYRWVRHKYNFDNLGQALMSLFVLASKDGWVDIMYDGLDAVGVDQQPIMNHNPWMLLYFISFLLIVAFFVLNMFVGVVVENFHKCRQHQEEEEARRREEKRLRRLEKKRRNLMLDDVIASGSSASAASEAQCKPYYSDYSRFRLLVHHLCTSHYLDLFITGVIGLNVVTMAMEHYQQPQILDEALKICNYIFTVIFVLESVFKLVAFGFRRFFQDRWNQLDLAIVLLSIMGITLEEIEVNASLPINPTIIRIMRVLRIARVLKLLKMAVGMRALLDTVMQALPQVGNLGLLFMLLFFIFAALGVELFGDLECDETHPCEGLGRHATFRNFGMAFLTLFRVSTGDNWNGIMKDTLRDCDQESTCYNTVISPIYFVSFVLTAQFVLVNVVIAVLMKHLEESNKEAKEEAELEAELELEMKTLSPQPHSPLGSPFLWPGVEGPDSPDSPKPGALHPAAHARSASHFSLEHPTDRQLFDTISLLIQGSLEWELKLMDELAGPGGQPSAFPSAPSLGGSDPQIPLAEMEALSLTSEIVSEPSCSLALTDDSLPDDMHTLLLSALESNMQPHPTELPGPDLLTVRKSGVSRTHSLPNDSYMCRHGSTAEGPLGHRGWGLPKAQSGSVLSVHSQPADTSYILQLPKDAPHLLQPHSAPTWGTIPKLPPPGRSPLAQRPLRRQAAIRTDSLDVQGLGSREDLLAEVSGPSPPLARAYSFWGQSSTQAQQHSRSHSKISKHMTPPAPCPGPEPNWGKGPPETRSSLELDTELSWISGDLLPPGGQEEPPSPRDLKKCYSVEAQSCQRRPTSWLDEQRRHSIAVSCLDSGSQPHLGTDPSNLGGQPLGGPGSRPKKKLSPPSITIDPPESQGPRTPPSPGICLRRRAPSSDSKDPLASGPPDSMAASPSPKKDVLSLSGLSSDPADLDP
Method: In the present invention, in order to examine an efficient inhibitor against the T-type calcium channel, a primary assay for T-type calcium channel inhibiting activity was conducted by a high-efficient assay using FDSS6000, wherein mammal HEK293 cell lines (originated from human kidney carcinoma cells) that specifically express α1G of the T-type calcium channel was used for primary assay. Through the primary assay, compounds that show meaningful inhibition effects were selected. The selected compounds were used in a second assay for T-type calcium channel inhibiting activity using an electrophysiological whole cell patch clamp method, wherein mammal HEK293 cell lines (originated from human kidney carcinoma cells) that specifically express α1G of the T-type calcium channel was used for the second assay. Mibefradil, which had been developed as a T-type calcium channel inhibitor, was used as a reference.
At 12-24 hours before being used for this assay, cells of HEK293 cell line (α1G cell line: KCTC 10519BP, Korean Collection for Type Cultures), which stably express α1G T-type calcium channel and Kir2.1, were sub-cultured in a poly-L-lysine treated 96-well plate with the density of 4×10^4 per well using a 96-well cell dispenser (Titertek). On the day of assay, the 96-well plate to which the cells were attached was washed three times with HEPES buffer solution (150 mM of NaCl, 5 mM of KCl, 1 mM of MgCl2, 2 mM of CaCl2, 10 mM of HEPES, 10 mM of glucose; pH 7.4) using a 96-well plate automatic washing device (Bio Tek), then reacted with HEPES buffer solution containing 5 μM fluo-3/AM and 0.001% Pluronic F-127 at room temperature for 1 hour, to label with fluorescent dye, and then further washed two times with HEPES buffer solution.
Thereafter, at 10 minutes before the measurement using device FDSS6000, washing with HEPES buffer solution containing 10 mM CaCl2 was conducted once more, and the final volume was adjusted to 81 μl. Besides the above 96-well plate containing the cells, two additional drug 96-well plates were provided, wherein the 96-well plates contained an inhibiting drug and KCl (final concentration: 75 mM) for activating the T-type calcium channel, respectively. Since most of cell-based HTS devices are equipped with a liquid application system for injection of drug, but have no liquid sucking system, the inhibiting drug to be tested and KCl were respectively provided at a five-times higher concentration in 10 mM CaCl2 HEPES buffer solution at the amount of 27 μl, diluted by five-times at the final cell plate volume of 135 μl, and then used in this test. The concrete method of measurement using FDSS6000 was as follows. After recording the reference value of 20 seconds, the change of intracellular Ca^2+ concentration that was induced by treatment of the inhibiting drug to be tested for 75 seconds followed by administration of KCl was measured, wherein the percentage (%) inhibition effect of the test drug, through estimating the area of ratio value of 340/380 in the control without treatment of the test drug, was 100%. As a reference drug, 10 μM mibefradil was used.
For accurate calcium imaging, the light source of 4 xenon lamps in FDSS6000 were radiated to selectively expose the cells to the excitation wavelength (340 nm and 380 nm) by a computer-controlled filter wheel. Data was obtained at intervals of 1.23 seconds. The emitter fluorescence light inflowed through a long-pass filter was obtained as an average 340/380 ratio value for each well in the 96-wells by using a CCD camera and a digital fluorescence analyzer in FDSS6000. All image data and analyses were obtained by using a FDSS6000-exclusive program from Hamamatsu Photonics.
The obtained results are shown in Table 2 (the results from the compounds according to the examples of the present invention) and Table 3 (the results from the compounds according to the comparative example where R6 is a phenyl group) [FDSS (% inhibition) 10 μM].

[2] = HEK293, 10 μM, HEK293 cells stably expressing α1G T-type calcium channel and Kir2.1, compounds of the examples, read-out: FDSS (% inhibition)/10uM

Row | Structure (SMILES) | melting point | inhibition at 10 µM [1, 2] | inhibition at 10 µM ([1]; 10 μM, FDSS (% inhibition), comparative compounds where R6 is a phenyl group, read-out: FDSS)
1 | CCCCN1C(=NC23CC4CC(CC(C4)C2)C3)SCC1CC(=O)Nc1ccc(C)cc1.Cl (centres unmarked) [KHG24781, [2-(1-adamantylimino)-3-(n-butyl)-1,3-thiazolidine-4-yl]-N-(4-methylphenyl)-acetamide hydrochloride] | 164 °C | 47.2% | –
2 | Cl.O=C(CC1CSC(=NC2CCCCC2)N1Cc1ccccc1)Nc1cc(Cl)ccc1F (centres unmarked) [KHG24408, (2-cyclohexylimino-3-benzyl-1,3-thiazolidine-4-yl)-N-(5-chloro-2-fluorophenyl)-acetamide hydrochloride] | 194.8 °C | 32.6% | –
3 | CN1C(=NC2CCCCC2)SCC1CC(=O)Nc1ccc(C(C)(C)C)cc1.Cl (centres unmarked) [KHG24073, (2-cyclohexylimino-3-methyl-1,3-thiazolidine-4-yl)-N-(4-t-butylphenyl)-acetamide hydrochloride] | 234 to 235.5 °C | 57.3% | –
4 | CCCCc1ccc(NC(=O)CC2CSC(=NC3CCCCC3)N2Cc2ccccc2)cc1.Cl (centres unmarked) [KHG24406, (2-cyclohexylimino-3-benzyl-1,3-thiazolidine-4-yl)-N-(4-n-butylphenyl)-acetamide hydrochloride] | 156.2 °C | 34.4% | –
5 | CCCN1C(=NC23CC4CC(CC(C4)C2)C3)SCC1CC(=O)Nc1cc([N+](=O)[O-])ccc1F.Cl (centres unmarked) [KHG24839, [2-(1-adamantylimino)-3-n-propyl-1,3-thiazolidine-4-yl]-N-(2-fluoro-5-nitrophenyl)-acetamide hydrochloride] | 145 °C | 59.7% | –
6 | CC(C)N1C(=NC23CC4CC(CC(C4)C2)C3)SCC1CC(=O)Nc1cc(Cl)ccc1F.Cl (centres unmarked) [KHG24835, [2-(1-adamantylimino)-3-isopropyl-1,3-thiazolidine-4-yl]-N-(5-chloro-2-fluorophenyl)-acetamide hydrochloride] | 116 °C | 55.2% | –
7 | CN1C(=NC2CCCC2)SCC1CC(=O)Nc1ccc(Br)cc1.Cl (centres unmarked) [KHG24098, (2-cyclopentylimino-3-methyl-1,3-thiazolidine-4-yl)-N-(4-bromophenyl)-acetamide hydrochloride] | 228 to 228.5 °C | 50.5% | –
8 | CCCN1C(=NC2CCCCC2)SCC1CC(=O)Nc1ccc(F)cc1.Cl (centres unmarked) [KHG24296, [2-cyclohexylimino-3-(n-propyl)-1,3-thiazolidine-4-yl]-N-(4-fluorophenyl)-acetamide hydrochloride] | 169.7 °C | 53.1% | –
9 | CC(C)c1ccc(NC(=O)CC2CSC(=Nc3ccc(C#N)cc3)N2C)cc1.Cl (centres unmarked) [KHG21945, [2-(4-cyanophenylimino)-3-methyl-1,3-thiazolidine-4-yl]-N-(4-isopropylphenyl)-acetamide hydrochloride] | 234 to 235 °C | – | 7.71%
10 | CC1SC(=NC2CCCCCC2)N(C)C1CC(=O)Nc1cc([N+](=O)[O-])ccc1F.Cl (centres unmarked) [KHG24645, (2-cycloheptylimino-3,5-dimethyl-1,3-thiazolidine-4-yl)-N-(2-fluoro-5-nitrophenyl)-acetamide hydrochloride] | 248 to 251 °C | 48.4% | –
11 | CCCN1C(=NC2CCCCC2)SCC1CC(=O)Nc1ccc(Br)cc1.Cl (centres unmarked) [KHG24288, [2-cyclohexylimino-3-(n-propyl)-1,3-thiazolidine-4-yl]-N-(4-bromophenyl)-acetamide hydrochloride] | 219.1 °C | 55% | –
12 | CCCN1C(=NC23CC4CC(CC(C4)C2)C3)SCC1CC(=O)Nc1cc(Cl)cc(Cl)c1.Cl (centres unmarked) [KHG24805, [2-(1-adamantylimino)-3-n-propyl-1,3-thiazolidine-4-yl]-N-(3,5-dichlorophenyl)-acetamide hydrochloride] | 153 °C | 32.2% | –
13 | Br.CN1C(=NC2CCCCCC2)SCC1C(=O)NCc1cccc(Br)c1 (centres unmarked) [KHG24668, (2-cycloheptylimino-3-methyl-1,3-thiazolidine-4-yl)-N-(3-bromobenzyl)-carboxamide hydrobromide] | 197.3 °C | 50.7% | –
